Measured values taken from patent publication US20090270413A1, “DI-T-BUTYLPHENYL PIPERAZINES AS CALCIUM CHANNEL BLOCKERS” (priority 2008, published 2009).

Molecular target: T1, Human Cav2.2 channels (Homo sapiens, UniProt Q00975)
T1 construct: expressed in transfected cells
Assay: Block of Cav2.2 (N-type) channels expressed in HEK293 cells
Format: cell-based
Settings: HEK293; for inhibition at 10 µM: read-out: Cav 2.2 % Inh @ 10 μM; for inhibition at 30 µM: read-out: Cav 2.2 % Inh @ 30 μM
Excerpt: Human Cav2.2 channels were stably expressed in HEK293 cells along with alpha2-delta and beta subunits of voltage-gated calcium channels. An inwardly rectifying potassium channel (Kir2.3) was also expressed in these cells to allow more precise control of the cell membrane potential by extracellular potassium concentration. At low bath potassium concentration, the membrane potential is relatively negative, and is depolarized as the bath potassium concentration is raised. In this way, the bath potassium concentration can be used to regulate the voltage-dependent conformations of the channels. Compounds are incubated with cells in the presence of low (4 mM) potassium or elevated (12, 25 or 30 mM) potassium to determine the affinity for compound block of resting (closed) channels at 4 mM potassium or affinity for block of open and inactivated channels at 12, 25 or 30 mM potassium. After the incubation period, Cav2.2 channel opening is triggered by addition of higher concentration of potassium (70 mM final concentration) to further depolarize the cell. The degree of state-dependent block can be estimated from the inhibitory potency of compounds after incubation in different potassium concentrations.
Calcium influx through Cav2.2 channels is determined using a calcium sensitive fluorescent dye in combination with a fluorescent plate reader. Fluorescent changes were measured with either a VIPR (Aurora Instruments) or FLIPR (Molecular Devices) plate reader.
Protocol • 1. Seed cells in Poly-D-Lysine Coated 96 or 384-well plate and keep in a 37° C.-10% CO2 incubator overnight • 2. Remove media, wash cells with 0.2 mL (96-well plate) or 0.05 mL (384-well plate) Dulbecco's Phosphate Buffered Saline (D-PBS) with calcium & magnesium (Invitrogen; 14040) • 3. Add 0.1 mL (96-well plate) or 0.05 mL (384-well plate) of 4 μM fluor-4 (Molecular Probes; F-14202) and 0.02% Pluronic acid (Molecular Probes; P-3000) prepared in D-PBS with calcium & magnesium (Invitrogen; 14040) supplemented with 10 mM Glucose & 10 mM Hepes/NaOH; pH 7.4 • 4. Incubate in the dark at 25° C. for 60-70 min • 5. Remove dye, wash cells with 0.1 mL (96-well plate) or 0.06 mL (384-well plate) of 4, 12, 25, or 30 mM Potassium Pre-polarization Buffer (PPB) • 6. Add 0.1 mL (96-well plate) or 0.03 mL (384-well plate) of 4, 12, 25, 30 mM PPB with or without test compound • 7. Incubate in the dark at 25° C. for 30 min • 8. Read cell plate on VIPR instrument, Excitation=480 nm, Emission=535 nm • 9. With VIPR continuously reading, add 0.1 mL (96-well plate) or 0.03 mL (384-well plate) of Depolarization Buffer (DB), which is 2× the final assay concentration, to the cell plate.
Block of N-type calcium channels is evaluated utilizing the IonWorks HT 384 well automated patch clamp electrophysiology device. This instrument allows synchronous recording from 384 well (48 at a time). A single whole cell recording is made in each well. Whole cell recording is established by perfusion of the internal compartment with amphotericin B.
The voltage protocol is designed to detect use-dependent block. A 2 Hz train of depolarizations (twenty 25 ms steps to +20 mV). The experimental sequence consists of a control train (pre-compound), incubation of cells with compound for 5 minutes, followed by a second train (post-compound). Use dependent block by compounds is estimated by comparing fractional block of the first pulse in the train to block of the 20th pulse.
Parallel patch clamp electrophysiology is performed using IonWorks HT (Molecular Devices Corp) essentially as described by Kiss and colleagues (Kiss et al. 2003; Assay and Drug Development Technologies, 1:127-135). Briefly, a stable HEK 293 cell line (referred to as CBK) expressing the N-type calcium channel subunits (α1B, α2δ, β3a) and an inwardly rectifying potassium channel (Kir2.3) is used to record barium current through the N-type calcium channel. Cells are grown in T75 culture plates to 60-90% confluence before use. […]

T1 sequence (Q00975 whole entry): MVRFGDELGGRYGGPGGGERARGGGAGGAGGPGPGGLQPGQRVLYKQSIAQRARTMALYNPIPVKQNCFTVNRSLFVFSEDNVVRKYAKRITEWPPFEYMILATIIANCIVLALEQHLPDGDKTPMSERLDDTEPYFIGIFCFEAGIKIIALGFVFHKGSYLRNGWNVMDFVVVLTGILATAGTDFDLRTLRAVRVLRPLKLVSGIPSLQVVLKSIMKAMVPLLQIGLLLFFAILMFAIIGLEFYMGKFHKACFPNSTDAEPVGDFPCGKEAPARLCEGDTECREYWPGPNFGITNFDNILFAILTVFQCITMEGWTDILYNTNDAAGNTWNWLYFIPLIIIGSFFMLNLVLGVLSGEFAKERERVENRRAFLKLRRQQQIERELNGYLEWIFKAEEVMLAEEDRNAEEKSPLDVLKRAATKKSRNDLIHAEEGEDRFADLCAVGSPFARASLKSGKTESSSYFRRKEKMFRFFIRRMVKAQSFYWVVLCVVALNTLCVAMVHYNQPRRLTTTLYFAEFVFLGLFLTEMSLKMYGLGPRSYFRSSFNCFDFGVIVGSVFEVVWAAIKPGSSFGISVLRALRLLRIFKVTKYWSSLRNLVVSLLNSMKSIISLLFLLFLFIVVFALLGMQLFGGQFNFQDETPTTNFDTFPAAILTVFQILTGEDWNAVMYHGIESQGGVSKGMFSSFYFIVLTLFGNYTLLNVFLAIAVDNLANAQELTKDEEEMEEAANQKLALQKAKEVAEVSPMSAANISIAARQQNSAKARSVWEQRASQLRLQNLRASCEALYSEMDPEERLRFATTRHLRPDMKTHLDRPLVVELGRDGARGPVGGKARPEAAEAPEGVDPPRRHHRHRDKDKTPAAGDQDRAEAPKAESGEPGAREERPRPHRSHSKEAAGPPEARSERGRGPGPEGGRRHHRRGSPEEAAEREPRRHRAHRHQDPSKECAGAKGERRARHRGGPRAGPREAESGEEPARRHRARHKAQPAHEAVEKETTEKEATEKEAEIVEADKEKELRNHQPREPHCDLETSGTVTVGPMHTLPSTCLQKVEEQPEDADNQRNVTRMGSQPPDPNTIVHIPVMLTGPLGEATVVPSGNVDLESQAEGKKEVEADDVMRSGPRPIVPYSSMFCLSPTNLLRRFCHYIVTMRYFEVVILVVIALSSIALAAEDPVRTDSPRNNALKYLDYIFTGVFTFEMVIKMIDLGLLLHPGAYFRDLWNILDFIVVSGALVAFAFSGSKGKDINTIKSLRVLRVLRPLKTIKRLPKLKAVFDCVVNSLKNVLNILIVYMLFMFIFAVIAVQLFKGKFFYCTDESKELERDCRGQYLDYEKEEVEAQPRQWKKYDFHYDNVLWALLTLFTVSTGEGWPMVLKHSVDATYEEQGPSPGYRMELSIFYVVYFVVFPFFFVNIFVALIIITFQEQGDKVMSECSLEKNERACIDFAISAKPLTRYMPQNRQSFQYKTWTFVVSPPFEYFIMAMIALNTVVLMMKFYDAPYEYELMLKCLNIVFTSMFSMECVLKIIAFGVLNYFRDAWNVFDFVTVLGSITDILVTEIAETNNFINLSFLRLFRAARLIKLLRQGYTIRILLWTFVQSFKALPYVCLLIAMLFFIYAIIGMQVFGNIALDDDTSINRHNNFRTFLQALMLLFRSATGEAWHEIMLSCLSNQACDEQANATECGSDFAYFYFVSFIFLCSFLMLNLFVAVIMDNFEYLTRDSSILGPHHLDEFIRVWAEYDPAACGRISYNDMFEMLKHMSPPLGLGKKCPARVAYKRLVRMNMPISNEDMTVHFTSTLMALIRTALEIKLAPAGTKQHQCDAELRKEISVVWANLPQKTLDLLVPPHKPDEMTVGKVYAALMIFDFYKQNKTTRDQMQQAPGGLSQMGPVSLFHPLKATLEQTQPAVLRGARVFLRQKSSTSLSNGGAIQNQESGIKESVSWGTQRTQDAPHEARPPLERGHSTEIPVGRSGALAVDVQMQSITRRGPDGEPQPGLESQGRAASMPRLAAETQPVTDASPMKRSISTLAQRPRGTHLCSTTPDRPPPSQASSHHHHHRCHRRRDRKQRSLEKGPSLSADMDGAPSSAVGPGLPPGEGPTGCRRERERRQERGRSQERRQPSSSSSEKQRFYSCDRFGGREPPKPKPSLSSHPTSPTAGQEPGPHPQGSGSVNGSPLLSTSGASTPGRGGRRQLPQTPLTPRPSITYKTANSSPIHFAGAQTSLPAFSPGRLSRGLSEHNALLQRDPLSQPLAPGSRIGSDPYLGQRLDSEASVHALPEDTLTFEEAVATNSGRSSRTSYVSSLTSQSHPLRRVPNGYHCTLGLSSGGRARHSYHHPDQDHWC
T1 sequence (P54289 25-956 partner limits assumed): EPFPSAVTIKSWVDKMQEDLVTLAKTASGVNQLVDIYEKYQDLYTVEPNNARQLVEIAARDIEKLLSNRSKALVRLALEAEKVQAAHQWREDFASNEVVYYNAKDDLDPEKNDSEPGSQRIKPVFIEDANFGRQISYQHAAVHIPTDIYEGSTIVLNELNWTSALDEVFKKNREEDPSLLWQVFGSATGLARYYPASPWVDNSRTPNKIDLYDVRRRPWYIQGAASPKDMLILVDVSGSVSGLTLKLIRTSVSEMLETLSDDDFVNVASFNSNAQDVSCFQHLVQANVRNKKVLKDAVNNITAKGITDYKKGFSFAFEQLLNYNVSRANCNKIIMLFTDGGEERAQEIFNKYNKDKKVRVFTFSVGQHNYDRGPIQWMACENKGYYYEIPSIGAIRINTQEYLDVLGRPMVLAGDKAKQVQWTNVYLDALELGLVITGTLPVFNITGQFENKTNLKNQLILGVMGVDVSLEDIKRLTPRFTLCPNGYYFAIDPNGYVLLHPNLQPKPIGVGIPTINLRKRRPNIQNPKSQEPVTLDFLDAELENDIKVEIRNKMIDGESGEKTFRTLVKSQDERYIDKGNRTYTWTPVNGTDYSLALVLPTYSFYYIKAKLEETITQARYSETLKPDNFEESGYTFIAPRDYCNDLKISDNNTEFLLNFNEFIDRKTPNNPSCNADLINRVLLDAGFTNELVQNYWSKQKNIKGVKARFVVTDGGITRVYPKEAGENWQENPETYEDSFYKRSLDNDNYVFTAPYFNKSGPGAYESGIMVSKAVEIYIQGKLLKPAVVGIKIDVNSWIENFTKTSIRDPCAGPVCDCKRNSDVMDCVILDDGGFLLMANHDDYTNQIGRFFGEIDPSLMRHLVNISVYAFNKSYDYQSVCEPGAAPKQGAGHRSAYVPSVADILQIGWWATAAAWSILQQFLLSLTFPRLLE
T1 sequence (P54289 957-1103 partner limits assumed): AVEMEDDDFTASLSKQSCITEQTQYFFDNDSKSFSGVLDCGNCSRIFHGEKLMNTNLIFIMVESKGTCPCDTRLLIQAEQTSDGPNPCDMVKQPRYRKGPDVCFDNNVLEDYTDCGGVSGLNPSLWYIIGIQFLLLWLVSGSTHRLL
T1 sequence (P54284 whole entry partner): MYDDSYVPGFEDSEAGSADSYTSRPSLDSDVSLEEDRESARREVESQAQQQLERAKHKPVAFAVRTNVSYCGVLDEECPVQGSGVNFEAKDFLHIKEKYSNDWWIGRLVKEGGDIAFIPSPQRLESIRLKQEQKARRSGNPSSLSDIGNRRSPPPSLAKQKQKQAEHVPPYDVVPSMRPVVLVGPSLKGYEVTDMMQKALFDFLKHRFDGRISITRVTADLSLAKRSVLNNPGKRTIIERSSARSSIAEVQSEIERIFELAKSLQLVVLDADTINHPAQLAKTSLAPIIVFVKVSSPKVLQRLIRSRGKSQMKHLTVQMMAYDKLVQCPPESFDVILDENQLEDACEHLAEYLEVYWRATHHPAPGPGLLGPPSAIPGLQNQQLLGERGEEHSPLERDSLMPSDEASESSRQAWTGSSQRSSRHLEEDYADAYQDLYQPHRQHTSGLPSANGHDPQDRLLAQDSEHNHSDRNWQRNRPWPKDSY

| Structure (SMILES) | inhibition at 10 µM | inhibition at 30 µM |
| --- | --- | --- |
| Cc1cc(C(=O)N2CCN(c3cc(C(C)(C)C)cc(C(C)(C)C)c3)CC2)c(C(F)(F)F)o1 [Compound 1, (4-(3,5-di-tert-butylphenyl)piperazin-1-yl)(5-methyl-2-(trifluoromethyl)furan-3-yl)methanone] | 91% | 101% |
| CC(C)(C)c1cc(N2CCN(C(=O)c3ccc(S(C)(=O)=O)cc3Cl)CC2)cc(C(C)(C)C)c1 [Compound 5, (2-chloro-4-(methylsulfonyl)phenyl)(4-(3,5-di-tert-butylphenyl)piperazin-1-yl)methanone] | 85% | 96% |
| COc1ccc(Cl)cc1C(=O)N1CCN(c2cc(C(C)(C)C)cc(C(C)(C)C)c2)CC1 [Compound 9, (5-chloro-2-methoxyphenyl)(4-(3,5-di-tert-butylphenyl)piperazin-1-yl)methanone] | 91% | 101% |
| Cn1nc(C(C)(C)C)cc1C(=O)N1CCN(c2cc(C(C)(C)C)cc(C(C)(C)C)c2)CC1 [Compound 11, (3-tert-butyl-1-methyl-1H-pyrazol-5-yl)(4-(3,5-di-tert-butylphenyl)piperazin-1-yl)methanone] | 91% | 97% |
| CC(C)(C)c1cc(N2CCN(C(=O)c3cc(F)cc(C(F)(F)F)c3)CC2)cc(C(C)(C)C)c1 [Compound 12, (4-(3,5-di-tert-butylphenyl)piperazin-1-yl)(3-fluoro-5-(trifluoromethyl)phenyl)methanone] | 84% | 98% |
| Cc1ccc(C(=O)N2CCN(c3cc(C(C)(C)C)cc(C(C)(C)C)c3)CC2)c(C)c1 [Compound 15, (4-(3,5-di-tert-butylphenyl)piperazin-1-yl)(2,4-dimethylphenyl)methanone] | 96% | 93% |
| CC(C)c1ccc(C(=O)N2CCN(c3cc(C(C)(C)C)cc(C(C)(C)C)c3)CC2)cc1 [Compound 17, (4-(3,5-di-tert-butylphenyl)piperazin-1-yl)(4-isopropylphenyl)methanone] | 80% | 97% |
| CC(C)(C)c1cc(N2CCN(C(=O)c3cc4cccnc4nc3C(F)(F)F)CC2)cc(C(C)(C)C)c1 [Compound 19] | 49% | 69% |
| CC(C)c1cc(C(=O)N2CCN(c3cc(C(C)(C)C)cc(C(C)(C)C)c3)CC2)on1 [Compound 24, (4-(3,5-di-tert-butylphenyl)piperazin-1-yl)(3-isopropylisoxazol-5-yl)methanone] | 88% | 96% |
| CC(C)(C)c1cc(N2CCN(C(=O)c3cc(S(C)(=O)=O)ccc3Cl)CC2)cc(C(C)(C)C)c1 [Compound 25, (2-chloro-5-(methylsulfonyl)phenyl)(4-(3,5-di-tert-butylphenyl)piperazin-1-yl)methanone] | 89% | 99% |
| CC(C)c1cc(C(=O)N2CCN(c3cc(C(C)(C)C)cc(C(C)(C)C)c3)CC2)c2cnn(C(C)C)c2n1 [Compound 27, (4-(3,5-di-tert-butylphenyl)piperazin-1-yl)(1,6-diisopropyl-1H-pyrazolo[3,4-b]pyridin-4-yl)methanone] | 59% | 83% |
| CC(C)(C)c1cc(N2CCN(C(=O)c3ccc(C(C)(C)C)s3)CC2)cc(C(C)(C)C)c1 [Compound 34, (5-tert-butylthiophen-2-yl)(4-(3,5-di-tert-butylphenyl)piperazin-1-yl)methanone] | 52% | 59% |
| CC(C)(C)c1cc(N2CCN(C(=O)c3ccc(C(O)(C(F)(F)F)C(F)(F)F)cc3)CC2)cc(C(C)(C)C)c1 [Compound 36, (4-(3,5-di-tert-butylphenyl)piperazin-1-yl)(4-(1,1,1,3,3,3-hexafluoro-2-hydroxypropan-2-yl)phenyl)methanone] | 32% | 73% |
| CC(C)(C)c1cc(N2CCN(C(=O)c3cc(C4CC4)nc4ccccc34)CC2)cc(C(C)(C)C)c1 [Compound 40, (2-cyclopropylquinolin-4-yl)(4-(3,5-di-tert-butylphenyl)piperazin-1-yl)methanone] | 86% | 91% |
| CC(C)(C)c1cc(N2CCN(C(=O)c3cc(C4CC4)n[nH]3)CC2)cc(C(C)(C)C)c1 [Compound 42, (3-cyclopropyl-1H-pyrazol-5-yl)(4-(3,5-di-tert-butylphenyl)piperazin-1-yl)methanone] | 54% | 98% |
| CCCc1cc(C(=O)N2CCN(c3cc(C(C)(C)C)cc(C(C)(C)C)c3)CC2)sc1C [Compound 44, (4-(3,5-di-tert-butylphenyl)piperazin-1-yl)(5-methyl-4-propylthiophen-2-yl)methanone] | 65% | 81% |

Next, values leading:

| inhibition at 10 µM | inhibition at 30 µM | Structure (SMILES) |
| --- | --- | --- |
| 90% | 94% | CC(C)(C)c1cc(N2CCN(C(=O)c3ccncc3)CC2)cc(C(C)(C)C)c1 [Compound 2, (4-(3,5-di-tert-butylphenyl)piperazin-1-yl)(pyridin-4-yl)methanone] |
| 86% | 95% | CC(C)(C)c1cc(N2CCN(C(=O)c3scc(S(C)(=O)=O)c3Cl)CC2)cc(C(C)(C)C)c1 [Compound 6, (3-chloro-4-(methylsulfonyl)thiophen-2-yl)(4-(3,5-di-tert-butylphenyl)piperazin-1-yl)methanone] |
| 59% | 83% | CC(C)(C)c1cc(N2CCN(C(=O)c3csc(-c4cccc(C(F)(F)F)c4)n3)CC2)cc(C(C)(C)C)c1 [Compound 18, (4-(3,5-di-tert-butylphenyl)piperazin-1-yl)(2-(3-(trifluoromethyl)phenyl)thiazol-4-yl)methanone] |
| 53% | 78% | CC(C)(C)c1cc(N2CCN(C(=O)c3ccc(S(=O)(=O)C(C)(C)C)s3)CC2)cc(C(C)(C)C)c1 [Compound 21, (5-(tert-butylsulfonyl)thiophen-2-yl)(4-(3,5-di-tert-butylphenyl)piperazin-1-yl)methanone] |
| 87% | 98% | Cc1ccc(S(C)(=O)=O)cc1C(=O)N1CCN(c2cc(C(C)(C)C)cc(C(C)(C)C)c2)CC1 [Compound 26, (4-(3,5-di-tert-butylphenyl)piperazin-1-yl)(2-methyl-5-(methylsulfonyl)phenyl)methanone] |
| 77% | 95% | Cc1oc(C(C)(C)C)cc1C(=O)N1CCN(c2cc(C(C)(C)C)cc(C(C)(C)C)c2)CC1 [Compound 35, (5-tert-butyl-2-methylfuran-3-yl)(4-(3,5-di-tert-butylphenyl)piperazin-1-yl)methanone] |
| 15% | 41% | CC(C)(C)c1cc(N2CCN(C(=O)c3cc4cc(C(F)(F)F)ccc4s3)CC2)cc(C(C)(C)C)c1 [Compound 39, (4-(3,5-di-tert-butylphenyl)piperazin-1-yl)(5-(trifluoromethyl)benzo[b]thiophen-2-yl)methanone] |
| 46% | 57% | CC1CCc2sc(C(=O)N3CCN(c4cc(C(C)(C)C)cc(C(C)(C)C)c4)CC3)cc2C1 (stereo not drawn) [Compound 43, (4-(3,5-di-tert-butylphenyl)piperazin-1-yl)(5-methyl-4,5,6,7-tetrahydrobenzo[b]thiophen-2-yl)methanone] |
